What was measured:
[1] = target: T1, Melatonin receptor type 1A (Homo sapiens, UniProt P48039); assay: Displacement of [125I]iodomelatonin from human cloned MT1 receptor expressed in […] NIH3T3 cells after 90 mins; assay type: cell-based
[2] = target: T2, Melatonin receptor type 1B (Homo sapiens) (UniProt P49286); assay: Intrinsic activity at human cloned MT2 receptor expressed in […] NIH3T3 cells assessed as increase of [35S]GTPgammaS binding relative to melatonin; assay type: functional, cell-based
T2 sequence (whole entry): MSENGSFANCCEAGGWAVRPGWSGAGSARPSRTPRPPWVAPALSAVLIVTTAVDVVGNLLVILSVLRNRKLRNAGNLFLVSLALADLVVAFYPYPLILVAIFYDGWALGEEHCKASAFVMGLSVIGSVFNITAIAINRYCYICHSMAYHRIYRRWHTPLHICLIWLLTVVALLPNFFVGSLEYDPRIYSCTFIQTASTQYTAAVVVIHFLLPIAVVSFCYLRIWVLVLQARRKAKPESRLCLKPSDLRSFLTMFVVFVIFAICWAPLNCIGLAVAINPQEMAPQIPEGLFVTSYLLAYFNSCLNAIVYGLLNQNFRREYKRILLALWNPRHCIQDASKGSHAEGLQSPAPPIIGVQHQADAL

[3] = target: T3, Melatonin receptor type 1B (Homo sapiens, UniProt P49286); assay: Displacement of [125I]iodomelatonin from human cloned MT2 receptor expressed in […] NIH3T3 cells after 90 mins; assay type: cell-based
T3 sequence (P49286 whole entry): T2 sequence (whole entry)

[4] = target: T1, Melatonin receptor type 1A; assay: Intrinsic activity at human cloned MT1 receptor expressed in […] NIH3T3 cells assessed as increase of [35S]GTPgammaS binding relative to melatonin; assay type: functional, cell-based

T1 sequence (P48039 whole entry): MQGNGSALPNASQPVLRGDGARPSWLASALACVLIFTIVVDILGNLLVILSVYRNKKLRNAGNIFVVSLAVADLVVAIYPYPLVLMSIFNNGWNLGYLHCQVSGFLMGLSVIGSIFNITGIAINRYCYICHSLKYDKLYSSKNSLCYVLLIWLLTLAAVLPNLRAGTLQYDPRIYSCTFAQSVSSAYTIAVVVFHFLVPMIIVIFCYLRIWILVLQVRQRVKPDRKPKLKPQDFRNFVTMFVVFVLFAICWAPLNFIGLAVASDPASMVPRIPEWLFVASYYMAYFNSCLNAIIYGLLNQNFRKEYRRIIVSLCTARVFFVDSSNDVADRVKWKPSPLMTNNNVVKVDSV

Row | SMILES | Ki [1] | Ratio [2] | Ki [3] | Ratio [4]
1 | COc1cccc(S[C@H](C)CNC(=O)C2CC2)c1 | 0.12 µM | 0.59 | 0.049 µM | 0.49
2 | COc1cccc(S[C@@H](C)CNC(=O)C2CC2)c1 | 0.00537 µM | 0.8 | 0.00676 µM | 0.8
3 | CC(=O)NC(C)COc1ccccc1 (stereo unspecified) | 12 µM | 0.15 | 3.8 µM | 0.04
4 | COc1cccc(SCC(C)NC(C)=O)c1 (stereo unspecified) | 12 µM | – | 1.32 µM | –
5 | COc1cccc(SCCNC(C)=O)c1 | 0.055 µM | 0.81 | 0.0398 µM | 0.85
6 | CC(=O)N[C@@H](C)CSc1ccccc1 | 3.72 µM | 0.25 | 4.37 µM | -0.07
7 | CCCC(=O)NC[C@H](C)Sc1cccc(OC)c1 | 0.00389 µM | 0.96 | 0.00603 µM | 0.99
8 | CC(=O)N[C@@H](C)COc1ccccc1 | 20.9 µM | 0.26 | 4.57 µM | 0.05
9 | COc1ccccc1OCCNC(C)=O | 37.2 µM | 0.22 | 6.61 µM | 0.23
10 | CC(=O)NC(C)CSc1ccccc1 (stereo unspecified) | 31.6 µM | 0.2 | 6.76 µM | 0
11 | CCCC(=O)NCC(C)Sc1cccc(OC)c1 (stereo unspecified) | 0.00912 µM | 0.99 | 0.00501 µM | 1.02
12 | CC(=O)NCCOc1ccccc1 | 11.5 µM | 0.5 | 5.5 µM | 0.31
13 | COc1ccccc1SCCNC(C)=O | 3.63 µM | 0.56 | 0.501 µM | 0.27
14 | CC(=O)N[C@H](C)CSc1ccccc1 | 74.1 µM | -0.04 | 64.6 µM | -0.05
15 | COc1cccc(SC(C)CNC(=O)C2CC2)c1 (stereo unspecified) | 0.00851 µM | 0.63 | 0.00977 µM | 0.77
16 | CC(=O)N[C@H](C)COc1ccccc1 | 63.1 µM | 0.11 | 53.7 µM | 0.17
17 | CCCC(=O)NC[C@@H](C)Sc1cccc(OC)c1 | 0.0708 µM | 0.64 | 0.0263 µM | 0.59
18 | CC(=O)NCCSc1ccccc1 | 3.8 µM | 0.5 | 0.339 µM | 0.22

Now from value to compound:

Row | Ki [1] | Ratio [2] | Ki [3] | Ratio [4] | SMILES
19 | 36.3 µM | 0.43 | 4.9 µM | 0.35 | COc1cccc(OC[C@@H](C)NC(C)=O)c1
20 | 61.7 µM | 0.44 | 45.7 µM | 0.26 | COc1ccc(OCCNC(C)=O)cc1
21 | 10.5 µM | 0.45 | 5.13 µM | 0.19 | COc1ccccc1OC(C)CNC(C)=O (stereo unspecified)
22 | 0.000724 µM | 1.26 | 0.00437 µM | 1.01 | COc1cccc(O[C@@H](C)CNC(=O)C2CC2)c1
23 | 2.82 µM | 0.56 | 2.4 µM | 0.48 | COc1ccc(SCCNC(C)=O)cc1
24 | 0.11 µM | – | 0.263 µM | – | COc1cccc(SC(C)CNC(C)=O)c1 (stereo unspecified)
25 | 0.00417 µM | 1.12 | 0.00372 µM | 1.04 | CCCC(=O)NCC(C)Oc1cccc(OC)c1 (stereo unspecified)
26 | 42.7 µM | 0.13 | 12.6 µM | 0.15 | COc1ccc(OC(C)CNC(C)=O)cc1 (stereo unspecified)
27 | 0.00575 µM | – | 0.00708 µM | – | COc1cccc(S[C@@H](C)CNC(C)=O)c1
28 | 0.00776 µM | 0.77 | 0.0209 µM | 0.9 | COc1cccc(O[C@H](C)CNC(=O)C2CC2)c1
29 | 0.049 µM | 0.93 | 0.11 µM | 0.79 | COc1cccc(O[C@H](C)CNC(C)=O)c1
30 | 0.0017 µM | 1.09 | 0.00468 µM | 1.01 | COc1cccc(O[C@@H](C)CNC(C)=O)c1
31 | 0.00309 µM | 1.07 | 0.00275 µM | 1.01 | CCCC(=O)NC[C@H](C)Oc1cccc(OC)c1
32 | 0.0813 µM | 0.86 | 0.0676 µM | 1.06 | CCCC(=O)NC[C@@H](C)Oc1cccc(OC)c1
33 | 0.0407 µM | 0.8 | 0.0676 µM | 0.81 | COc1cccc(OCCNC(C)=O)c1
34 | 0.000933 µM | 1.02 | 0.0129 µM | 0.91 | COc1cccc(OC(C)CNC(=O)C2CC2)c1 (stereo unspecified)
35 | 1.38 µM | 0.69 | 1.15 µM | 0.48 | CC(=O)NCC(C)Oc1ccccc1 (stereo unspecified)
36 | 11.5 µM | 0.32 | 12.3 µM | 0.29 | COc1cccc(SC[C@@H](C)NC(C)=O)c1
37 | 0.479 µM | 0.5 | 0.263 µM | 0.3 | COc1cccc(SC[C@H](C)NC(C)=O)c1
38 | 2.75 µM | – | 0.661 µM | – | COc1cccc(S[C@H](C)CNC(C)=O)c1
39 | 0.355 µM | 0.71 | 0.347 µM | 0.63 | COc1cccc(OCC(C)NC(C)=O)c1 (stereo unspecified)
40 | 0.347 µM | 0.8 | 0.302 µM | 0.75 | COc1cccc(OC[C@H](C)NC(C)=O)c1
41 | 0.00363 µM | 1.01 | 0.00955 µM | 1.01 | COc1cccc(OC(C)CNC(C)=O)c1 (stereo unspecified)

From ChEMBL document CHEMBL1221295 (Bioorg Med Chem, 2010)
